From patent publication US20260069588A1, “VEPDEGESTRANT FOR USE IN TREATING CANCER” (Arvinas Operation, Inc., priority 2022, published 2026)

Assay: Phase 1 single agent studies in Japanese and Chinese participants (C4891016, C4891018): adverse events
[1] = TEAE treatment related, 200 mg, N = 15

Text: TEAE's from participants in both studies have been combined and are described below.

SMILES: O=C1CC[C@H](N2Cc3cc(N4CCN(CC5CCN(c6ccc([C@@H]7c8ccc(O)cc8CC[C@@H]7c7ccccc7)cc6)CC5)CC4)ccc3C2=O)C(=O)N1 [Compound A, (S)-3-(5-(4-((1-(4-((1R,2S)-6-hydroxy-2-phenyl-1,2,3,4-tetrahydronaphthalen-1-yl)phenyl)piperidin-4-yl)methyl)piperazin-1-yl)-1-oxoisoindolin-2-yl)piperidine-2,6-dione]
- participants with a TRAE (200 mg): 11 of 15 participants
- participants with a TEAE (200 mg, 15 evaluable): 73.3%
- participants with grade 3-4 TEAE (200 mg, 15 evaluable): 33.4%
- TEAE Alanine aminotransferase increased (200 mg, N=15): 26.7%
- TEAE anemia (200 mg, N=15): 40.0%
- TEAE electrocardiogram QT prolonged (200 mg, N=15): 33.3%
- TEAEs constipation, hyperuricemia, hypokalaemia, neutrophil count decreased, each (200 mg, N=15): 20.0%
- TRAEs alanine aminotransferase increased and electrocardiogram QT prolonged, each (200 mg, N=15): 20.0%
- TRAEs aspartate aminotransferase increased, constipation, hyperuricemia, neutrophil count decreased, each (200 mg, N=15): 13.3%
- SAEs (3 participants, 6 Jun 2023): 3 SAEs
- Abdominal discomfort, Grade 1 [1]: 1 (6.7) n (%)
- Abdominal discomfort, Grade 2 [1]: 0 n (%)
- Abdominal discomfort, Grade 3 [1]: 0 n (%)
- Abdominal discomfort, Grade 4 [1]: 0 n (%)
- Abdominal discomfort, Grade 5 [1]: 0 n (%)
- Abdominal discomfort, Missing or Unknown [1]: 0 n (%)
- Abdominal discomfort, Total [1]: 1 (6.7) n (%)
- Alanine aminotransferase increased, Grade 1 [1]: 3 (20.0) n (%)
- Alanine aminotransferase increased, Grade 2 [1]: 0 n (%)
- Alanine aminotransferase increased, Grade 3 [1]: 0 n (%)
- Alanine aminotransferase increased, Grade 4 [1]: 0 n (%)
- Alanine aminotransferase increased, Grade 5 [1]: 0 n (%)
- Alanine aminotransferase increased, Missing or Unknown [1]: 0 n (%)
- Alanine aminotransferase increased, Total [1]: 3 (20.0) n (%)
- Alopecia, Grade 1 [1]: 1 (6.7) n (%)
- Alopecia, Grade 2 [1]: 0 n (%)
- Alopecia, Grade 3 [1]: 0 n (%)
- Alopecia, Grade 4 [1]: 0 n (%)
- Alopecia, Grade 5 [1]: 0 n (%)
- Alopecia, Missing or Unknown [1]: 0 n (%)
- Alopecia, Total [1]: 1 (6.7) n (%)
- Anemia, Grade 1 [1]: 0 n (%)
- Anemia, Grade 2 [1]: 1 (6.7) n (%)
- Anemia, Grade 3 [1]: 0 n (%)
- Anemia, Grade 4 [1]: 0 n (%)
- Anemia, Grade 5 [1]: 0 n (%)
- Anemia, Missing or Unknown [1]: 0 n (%)
- Anemia, Total [1]: 1 (6.7) n (%)
- Arthralgia, Grade 1 [1]: 1 (6.7) n (%)
- Arthralgia, Grade 2 [1]: 0 n (%)
- Arthralgia, Grade 3 [1]: 0 n (%)
- Arthralgia, Grade 4 [1]: 0 n (%)
- Arthralgia, Grade 5 [1]: 0 n (%)
- Arthralgia, Missing or Unknown [1]: 0 n (%)
- Arthralgia, Total [1]: 1 (6.7) n (%)
- Aspartate aminotransferase increased, Grade 1 [1]: 2 (13.3) n (%)
- Aspartate aminotransferase increased, Grade 2 [1]: 0 n (%)
- Aspartate aminotransferase increased, Grade 3 [1]: 0 n (%)
- Aspartate aminotransferase increased, Grade 4 [1]: 0 n (%)
- Aspartate aminotransferase increased, Grade 5 [1]: 0 n (%)
- Aspartate aminotransferase increased, Missing or Unknown [1]: 0 n (%)
- Aspartate aminotransferase increased, Total [1]: 2 (13.3) n (%)
- Bilirubin conjugated increased, Grade 1 [1]: 0 n (%)
- Bilirubin conjugated increased, Grade 2 [1]: 1 (6.7) n (%)
- Bilirubin conjugated increased, Grade 3 [1]: 0 n (%)
- Bilirubin conjugated increased, Grade 4 [1]: 0 n (%)
- Bilirubin conjugated increased, Grade 5 [1]: 0 n (%)
- Bilirubin conjugated increased, Missing or Unknown [1]: 0 n (%)
- Bilirubin conjugated increased, Total [1]: 1 (6.7) n (%)
- Blood and lymphatic system disorders, Grade 1 [1]: 0 n (%)
- Blood and lymphatic system disorders, Grade 2 [1]: 1 (6.7) n (%)
- Blood and lymphatic system disorders, Grade 3 [1]: 0 n (%)
- Blood and lymphatic system disorders, Grade 4 [1]: 0 n (%)
- Blood and lymphatic system disorders, Grade 5 [1]: 0 n (%)
- Blood and lymphatic system disorders, Missing or Unknown [1]: 0 n (%)
- Blood and lymphatic system disorders, Total [1]: 1 (6.7) n (%)
- Blood bilirubin increased, Grade 1 [1]: 0 n (%)
- Blood bilirubin increased, Grade 2 [1]: 1 (6.7) n (%)
- Blood bilirubin increased, Grade 3 [1]: 0 n (%)
- Blood bilirubin increased, Grade 4 [1]: 0 n (%)
- Blood bilirubin increased, Grade 5 [1]: 0 n (%)
- Blood bilirubin increased, Missing or Unknown [1]: 0 n (%)
- Blood bilirubin increased, Total [1]: 1 (6.7) n (%)
- Blood bilirubin unconjugated increased, Grade 1 [1]: 1 (6.7) n (%)
- Blood bilirubin unconjugated increased, Grade 2 [1]: 0 n (%)
- Blood bilirubin unconjugated increased, Grade 3 [1]: 0 n (%)
- Blood bilirubin unconjugated increased, Grade 4 [1]: 0 n (%)
- Blood bilirubin unconjugated increased, Grade 5 [1]: 0 n (%)
- Blood bilirubin unconjugated increased, Missing or Unknown [1]: 0 n (%)
- Blood bilirubin unconjugated increased, Total [1]: 1 (6.7) n (%)
- Cardiac disorders, Grade 1 [1]: 1 (6.7) n (%)
- Cardiac disorders, Grade 2 [1]: 0 n (%)
- Cardiac disorders, Grade 3 [1]: 0 n (%)
- Cardiac disorders, Grade 4 [1]: 0 n (%)
- Cardiac disorders, Grade 5 [1]: 0 n (%)
- Cardiac disorders, Missing or Unknown [1]: 0 n (%)
- Cardiac disorders, Total [1]: 1 (6.7) n (%)
- Constipation, Grade 1 [1]: 2 (13.3) n (%)
- Constipation, Grade 2 [1]: 0 n (%)
- Constipation, Grade 3 [1]: 0 n (%)
- Constipation, Grade 4 [1]: 0 n (%)
- Constipation, Grade 5 [1]: 0 n (%)
- Constipation, Missing or Unknown [1]: 0 n (%)
- Constipation, Total [1]: 2 (13.3) n (%)
- Decreased appetite, Grade 1 [1]: 1 (6.7) n (%)
- Decreased appetite, Grade 2 [1]: 0 n (%)
- Decreased appetite, Grade 3 [1]: 0 n (%)
- Decreased appetite, Grade 4 [1]: 0 n (%)
- Decreased appetite, Grade 5 [1]: 0 n (%)
- Decreased appetite, Missing or Unknown [1]: 0 n (%)
- Decreased appetite, Total [1]: 1 (6.7) n (%)
- Dizziness, Grade 1 [1]: 1 (6.7) n (%)
- Dizziness, Grade 2 [1]: 0 n (%)
- Dizziness, Grade 3 [1]: 0 n (%)
- Dizziness, Grade 4 [1]: 0 n (%)
- Dizziness, Grade 5 [1]: 0 n (%)
- Dizziness, Missing or Unknown [1]: 0 n (%)
- Dizziness, Total [1]: 1 (6.7) n (%)
- Electrocardiogram QT prolonged, Grade 1 [1]: 2 (13.3) n (%)
- Electrocardiogram QT prolonged, Grade 2 [1]: 0 n (%)
- Electrocardiogram QT prolonged, Grade 3 [1]: 1 (6.7) n (%)
- Electrocardiogram QT prolonged, Grade 4 [1]: 0 n (%)
- Electrocardiogram QT prolonged, Grade 5 [1]: 0 n (%)
- Electrocardiogram QT prolonged, Missing or Unknown [1]: 0 n (%)
- Electrocardiogram QT prolonged, Total [1]: 3 (20.0) n (%)
- Fatigue, Grade 1 [1]: 1 (6.7) n (%)
- Fatigue, Grade 2 [1]: 0 n (%)
- Fatigue, Grade 3 [1]: 0 n (%)
- Fatigue, Grade 4 [1]: 0 n (%)
- Fatigue, Grade 5 [1]: 0 n (%)
- Fatigue, Missing or Unknown [1]: 0 n (%)
- Fatigue, Total [1]: 1 (6.7) n (%)
- Gamma-glutamyl transferase increased, Grade 1 [1]: 1 (6.7) n (%)
- Gamma-glutamyl transferase increased, Grade 2 [1]: 0 n (%)
- Gamma-glutamyl transferase increased, Grade 3 [1]: 0 n (%)
- Gamma-glutamyl transferase increased, Grade 4 [1]: 0 n (%)
- Gamma-glutamyl transferase increased, Grade 5 [1]: 0 n (%)
- Gamma-glutamyl transferase increased, Missing or Unknown [1]: 0 n (%)
- Gamma-glutamyl transferase increased, Total [1]: 1 (6.7) n (%)
- Gastrointestinal disorders, Grade 1 [1]: 4 (26.7) n (%)
- Gastrointestinal disorders, Grade 2 [1]: 0 n (%)
